Data set [1] relates to HeLa cells expressing mt-Keima and YFP-Parkin (HeLa MKYP). Description: Human mt-Keima mitophagy assay. It is filed as cell-based. Particulars: 16 hrs with compound, then FCCP/oligomycin for 6 hours, FACS. The procedure: Briefly, HeLa cells expressing mt-Keima and YFP-Parkin (HeLa MKYP) were plated at 10,000 cells/well in 96 well plates along with compounds at various concentrations. Following 16 hrs of incubation, cells were treated with […] FCCP/oligomycin for 6 hours, then analyzed via FACS for the presence of mitochondria in lysosomes (as determined by an emissions spectrum shift from the pH-sensitive mt-Keima tag).

Data set [2] relates to SKOV3 cells. Description: In vitro mitosafety (glucose/galactose) assay. It is filed as cell-based. The following applies: highest mito-safe dose (gal/glc >0.80, IC20, SKOV3 cells, 20 hours) divided by mt-Keima EC50.
Experimental: Briefly, SKOV3 cells (ATCC HTB-77) were plated in DMEM (Corning 10-013-CV) medium containing 25 mM glucose or DMEM with no glucose (Gibco 11966-025) supplemented with 10 mMV galactose at 9,000 cells/well in 96 well plates (Corning costar 3610). 24 hrs later, compounds, in DMSO, were added at various concentrations to a final 0.1% DMSO for all wells. […] After a 15 minute incubation cellular ATP levels were read out using a Promega GloMax® DiscoverMicroplate Reader.
The ratio of relative CellTiter-Glo values from cells grown in galactose to cells grown in glucose was determined (gal/glc ratio). The gal/glc ratio vs concentration is then graphed, and non-linear regression is used to find the highest concentration of MTK compound at which gal/glc >0.80 (the “highest mito-safe dose”, or IC20).

This note sets out measurements from patent publication US20250129080A1, “COMPOSITIONS AND METHODS OF USING THE SAME FOR TREATMENT OF NEURODEGENERATIVE AND MITOCHONDRIAL DISEASE” (Mitokinin, Inc., priority 2021, published 2025).

For orientation: EC50 means the concentration giving half of the maximal effect. Regarding `FC(F)OC1CN([C@H]2COc3ccccc3[C@@H]2Nc2ncnc3[nH]c(C4CC4)cc23)C1` (relative stereo) [EP-0041832, 6-Cyclopropyl-N-[Trans-3-[3-(Difluoromethoxy)Azetidin-1-Yl]Chroman-4-Yl]-7H-Pyrrolo[2,3-D]Pyrimidin-4-Amine], in data set [1] (Homo sapiens, HeLa), the EC50 was determined as 346 nM. The “Mito-Safety Index (highest safe dose/EC50)” value (shortened to “Mito-Safety Index”) in data set [2] came to 72.23.

`FC(F)(F)C1CN([C@H]2COc3ccccc3[C@@H]2Nc2ncnc3[nH]c(C4CC4)cc23)CCO1` (single isomer, unassigned) [EP-0042928]: the EC50 in data set [1] (Homo sapiens, HeLa) is 170 nM. The “Mito-Safety Index” value in data set [2] stood at 42.17. In the case of `c1ccc2c(c1)OC[C@H](N1CCC3(CCCO3)C1)[C@H]2Nc1ncnc2[nH]c(C3CC3)cc12` (single isomer, unassigned) [EP-0042934], the EC50 in data set [1] was determined as 35 nM. Also, the “Mito-Safety Index” value in data set [2] amounted to 55.78. With `c1ccc2c(c1)OC[C@H](N1CCC3(CCCO3)C1)[C@H]2Nc1ncnc2[nH]c(C3CC3)cc12` (single isomer, unassigned) [EP-0042935], the “Mito-Safety Index” value in data set [2] was 211.76. As to `CC1(C#N)CCN([C@H]2COc3ccccc3[C@@H]2Nc2ncnc3[nH]c(C(F)(F)F)cc23)C1` (single isomer, unassigned) [EP-0043816], the EC50 in data set [1] (Homo sapiens, HeLa) was 110 nM. In data set [2], the “Mito-Safety Index” value is listed as 75.4. For `OC1([C@H]2COc3ccccc3[C@@H]2Nc2ncnc3[nH]c(C4CC4)cc23)CCOCC1` [EP-0042202, 4-[(3R,4R)-4-[(6-Cyclopropyl-7H-Pyrrolo[2,3-D]Pyrimidin-4-Yl)Amino]Chroman-3-Yl]Tetrahydropyran-4-Ol], in that order: 215 nM and 116.5. Take `OC1([C@H]2COc3ccccc3[C@@H]2Nc2ncnc3[nH]c(C(F)(F)F)cc23)CCOCC1` [EP-0042356, 4-[(3R,4R)-4-[[6-(Trifluoromethyl)-7H-Pyrrolo[2,3-D]Pyrimidin-4-Yl]Amino]Chroman-3-Yl]Tetrahydropyran-4-Ol]: the concentration for a half-maximal effect (EC50) in data set [1] (Homo sapiens, HeLa) is 218 nM. Further, the “Mito-Safety Index” value in data set [2] stood at 114.63. For `F[C@@H]1CCN([C@H]2COc3ccccc3[C@@H]2Nc2ncnc3[nH]c(C4CC4)cc23)C1` [EP-0042534, 6-Cyclopropyl-N-((3R,4S)-3-((R)-3-Fluoropyrrolidin-1-Yl)Chroman-4-Yl)-7H-Pyrrolo[2,3-D]Pyrimidin-4-Amine], in that order: 349 nM and 71.21. Take `c1ccc2c(c1)OC[C@H](N1CCOC3(CC3)C1)[C@H]2Nc1ncnc2[nH]c(C3CC3)cc12` [EP-0042535, N-((3R,4S)-3-(4-Oxa-7-Azaspiro[2.5]Octan-7-Yl)Chroman-4-Yl)-6-Cyclopropyl-7H-Pyrrolo[2,3-D]Pyrimidin-4-Amine]: the concentration giving a half-maximal response (EC50) in data set [1] (Homo sapiens, HeLa) worked out at 244 nM. The “Mito-Safety Index” value in data set [2] stood at 102.55.

On to `F[C@H]1CCN([C@H]2COc3ccccc3[C@@H]2Nc2ncnc3[nH]c(C4CC4)cc23)C1` [EP-0042536, 6-Cyclopropyl-N-((3R,4S)-3-((S)-3-Fluoropyrrolidin-1-Yl)Chroman-4-Yl)-7H-Pyrrolo[2,3-D]Pyrimidin-4-Amine], for which, in data set [1] (Homo sapiens, HeLa), the EC50 turned out to be 154 nM. Further, the “Mito-Safety Index” value in data set [2] stood at 89.78. For `CO[C@H]1CCCN([C@H]2COc3ccccc3[C@@H]2Nc2ncnc3[nH]c(C4CC4)cc23)C1` [EP-0042537, 6-Cyclopropyl-N-((3R,4S)-3-((S)-3-Methoxypiperidin-1-Yl)Chroman-4-Yl)-7H-Pyrrolo[2,3-D]Pyrimidin-4-Amine], the half-maximal effective concentration (EC50) in data set [1] (Homo sapiens, HeLa) came out at 268 nM. For the same compound, the “Mito-Safety Index” value in data set [2] was determined as 37.03. In the same order, the values of `c1ccc2c(c1)OC[C@H](N1CCCC1)[C@H]2Nc1ncnc2[nH]c(C3CC3)cc12` [EP-0042659, 6-Cyclopropyl-N-((3R,4S)-3-(Pyrrolidin-1-Yl)Chroman-4-Yl)-7H-Pyrrolo[2,3-D]Pyrimidin-4-Amine] are 251 nM and 54.54. On to `FC1(F)CCN([C@H]2COc3ccccc3[C@@H]2Nc2ncnc3[nH]c(C4CC4)cc23)C1` [EP-0042660, 6-Cyclopropyl-N-((3R,4S)-3-(3,3-Difluoropyrrolidin-1-Yl)Chroman-4-Yl)-7H-Pyrrolo[2,3-D]Pyrimidin-4-Amine], for which the half-maximal effective concentration (EC50) in data set [1] (Homo sapiens, HeLa) was 139 nM. For the same compound, the “Mito-Safety Index” value in data set [2] was 179.63. Consider `N#C[C@H]1CCN([C@H]2COc3ccccc3[C@@H]2Nc2ncnc3[nH]c(C4CC4)cc23)C1` [EP-0042930], for which the EC50 in data set [1] (Homo sapiens, HeLa) was 38 nM. For the same compound, in data set [2], the “Mito-Safety Index” value amounted to 105.8. For the compound `FC(F)(F)c1cc2c(N[C@H]3c4ccccc4OC[C@@H]3N3CCOC4(CC4)C3)ncnc2[nH]1` [EP-0042970, N-((3R,4S)-3-(4-Oxa-7-Azaspiro[2.5]Octan-7-Yl)Chroman-4-Yl)-6-(Trifluoromethyl)-7H-Pyrrolo[2,3-D]Pyrimidin-4-Amine], the EC50 in data set [1] (Homo sapiens, HeLa) is 404 nM. The “Mito-Safety Index” value in data set [2] stood at 61.94. Turning to `F[C@H]1CCN([C@H]2COc3ccccc3[C@@H]2Nc2ncnc3[nH]c(C(F)(F)F)cc23)C1` [EP-0042972, N-((3R,4S)-3-((S)-3-Fluoropyrrolidin-1-Yl)Chroman-4-Yl)-6-(Trifluoromethyl)-7H-Pyrrolo[2,3-D]Pyrimidin-4-Amine], in data set [1] (Homo sapiens, HeLa), the EC50 came to 387 nM. Moreover, the “Mito-Safety Index” value in data set [2] is given as 62.14. On to `FC(F)(F)c1cc2c(N[C@H]3c4ccccc4OC[C@@H]3C3(F)CCOCC3)ncnc2[nH]1` [EP-0043236, N-[(3R,4R)-3-(4-Fluorotetrahydropyran-4-Yl)Chroman-4-Yl]-6-(Trifluoromethyl)-7H-Pyrrolo[2,3-D]Pyrimidin-4-Amine], for which the EC50 in data set [1] (Homo sapiens, HeLa) amounted to 415 nM. The “Mito-Safety Index” value in data set [2] is given as 59.18. Turning to `N#C[C@H]1CCN([C@H]2COc3ccccc3[C@@H]2Nc2ncnc3[nH]c(C(F)(F)F)cc23)C1` [EP-0043263, (S)-1-((3R,4S)-4-((6-(Trifluoromethyl)-7H-Pyrrolo[2,3-D]Pyrimidin-4-Yl)Amino)Chroman-3-Yl)Pyrrolidine-3-Carbonitrile], the EC50 in data set [1] (Homo sapiens, HeLa) worked out at 97 nM. The “Mito-Safety Index” value in data set [2] was determined as 120.52. Take `N#C[C@@H]1CCN([C@H]2COc3ccccc3[C@@H]2Nc2ncnc3[nH]c(C(F)(F)F)cc23)C1` [EP-0043264, (R)-1-((3R,4S)-4-((6-(Trifluoromethyl)-7H-Pyrrolo[2,3-D]Pyrimidin-4-Yl)Amino)Chroman-3-Yl)Pyrrolidine-3-Carbonitrile]: in data set [1] (Homo sapiens, HeLa), the half-maximal effective concentration (EC50) came out at 129 nM. Moreover, the “Mito-Safety Index” value in data set [2] was 91.68. On to `N#C[C@H]1CCN([C@H]2COc3ccccc3[C@@H]2Nc2ncnc3[nH]c(C4CC4)cc23)C1` [EP-0043271, (S)-1-((3R,4S)-4-((6-Cyclopropyl-7H-Pyrrolo[2,3-D]Pyrimidin-4-Yl)Amino)Chroman-3-Yl)Pyrrolidine-3-Carbonitrile], for which, in data set [1], the concentration giving a half-maximal response (EC50) was determined as 65 nM. The “Mito-Safety Index” value in data set [2] amounted to 74.90. Turning to `CO[C@H]1CCCN([C@H]2COc3ccccc3[C@@H]2Nc2ncnc3[nH]c(C(F)(F)F)cc23)C1` [EP-0043439, N-((3R,4S)-3-((S)-3-Methoxypiperidin-1-Yl)Chroman-4-Yl)-6-(Trifluoromethyl)-7H-Pyrrolo[2,3-D]Pyrimidin-4-Amine], in data set [1] (Homo sapiens, HeLa), the half-maximal effective concentration (EC50) came out at 448 nM. Also, in data set [2], the “Mito-Safety Index” value is 48.93.
